According to US20250064846A1, “TREATMENT AND PREVENTION OF TRIGEMINAL NEURALGIA” (THE JOHNS HOPKINS UNIVERSITY, priority 2022, published 2025):

Key:
[1] = test system: maxillary nerves of mice after nerve ligation; experiment: Oxidative stress assay in maxillary nerves (4-HNE, protein carbonylation, MDA); type: in vivo, mouse; conditions: for levels of 4-HNE in maxillary nerves after nerve ligation / protein carbonylation in maxillary nerves after nerve ligation: western blot normalized to β-actin, daily i.p. pre-treatment, vs vehicle
Procedure: Western Blotting Western blotting was performed as previously described (See Vasavda, C. et al. Cell Chem Biol 26, 1450-1460.e7 (2019)). Briefly, tissues were homogenized at 4° C. in lysis buffer (pH 7.4 solution of 50 mM Tris-HCl, 150 mM NaCl, 0.1% SDS, 0.5% sodium deoxycholate, and 1% Triton X-100) supplemented with protease inhibitors (Sigma). When dissecting maxillary nerves for immunoblot analysis, nerves were as dissected both as proximally towards the semilunar ganglion and as distal to the skin as possible. Nerves were harvested 11 days after surgery, immediately after the final behavioral test. Lysates were then pulse sonicated and centrifuged at 16,000 g for 10 min at 4° C. Fifteen micrograms of cleared lysate were run on a 4-12% polyacrylamide Bis-Tris gradient gel in running buffer (pH 7.3 solution of 50 mM MES, 50 mM Tris Base, 0.1% SDS, 1 mM EDTA) and then transferred to a PVDF membrane. Membranes were blocked with 5% milk in TBS-T (pH 7.6 solution of 16 mM Tris-HCl, 140 mM NaCl, 0.1% Tween-20) for 1 hr at 25° C. and then incubated with primary antibodies in 3% bovine serum albumin (BSA) (w/v) in TBS-T overnight at 4° C. The following day, membranes were washed with TBS-T, and then incubated with secondary antibodies in 3% BSA (w/v) in TBS-T for 1 hr at 25° C. The following primary antibodies were used: rabbit anti-4-HNE (Abeam ab46545; 1:1.000), rabbit anti-TRPA1 (Novus Biologicals NB110-40763; 1:1,000), rabbit anti-DNP (Millipore Sigma 90451; 1:150), and mouse anti-β-actin (Santa Cruz Biotech sc-47778 HRP; 1:10,000). The following secondary antibodies were used: donkey anti-rabbit IgG (GE Healthcare NA934; 1:10,000) and goat anti-rabbit (Millipore Sigma 90452; 1:300).
Oxidative Stress Assay % 4-HNE was quantified by Western blot as described above with a rabbit anti-4-HNE (Abeam ab46545; 1:1,000) primary antibody. Protein carbonylation was assessed with the OxyBlot Protein Oxidation Detection Kit as per the manufacturer's instructions. Protein carbonylation was quantified by western blot as described above with a rabbit anti-DNP (Millipore Sigma 90451; 1:150) primary antibody. MDA was quantified with the OxiSelect TBARS Assay Kit as per the manufacturer's instructions. Concentrations below the limit of detection (LOD) were censored and substituted with a constant value of the […].

[2] = test system: NRF2; experiment: NRF2/MAP2 immunostaining in trigeminal ganglia; type: in vivo, mouse; conditions: immunohistochemistry 24 h after the fourth dose; 10 mg/kg, i.p.
[3] = test system: NRF2; experiment: NRF2 stability, ubiquitination and nuclear translocation in HEK-293 cells overexpressing FLAG-KEAP1 and myc-NRF2; type: cell-based; conditions: for stabilization of NRF2 / nuclear translocation of NRF2: 10 μM for 6 hours; for nuclear translocation of NRF2: nuclear myc-NRF2 vs vehicle; for inhibition of NRF2 ubiquitination: HEK-293 cells overexpressing FLAG-KEAP1, myc-NRF2 and HA-ubiquitin
Procedure: To determine a ratio of KFAP1 to NRF2 cDNA that best mimics baseline NRF2 activity, luciferase activity was measured 48 h after transfection with varying ratios of KEAP1 to NRF2 cDNA, normalized to total protein (FIG. 21A). Luciferase expression is controlled by a promoter that contains several NRF2 binding sites and is thus a measure of NRF2 activity. A 2.5 μg KFAP1 to 1 μg NRF2 cDNA ratio returned luciferase activity to baseline and was therefore employed for subsequent biochemical studies evaluating NRF2 stability and nuclear translocation. FIGS. 21B and 21C show the quantification (FIG. 21B) and immunoblots (FIG. 21C) of myc-NRF2, GAPDH, and H2B in whole cell lysates and cytoplasmic and nuclear subcellular fractions of HEK-293 cells overexpressing FLAG-KEAP1 and myc-NRF2, treated with vehicle, 10 μM MG-132, 10 μM sulforaphane (SF), 10 μM exemestane, or 10 μM JQ-1 for 6 hours. Data are expressed as a normalized ratio of nuclear myc-NRF2 compared to the vehicle-treated condition. FIG. 21D is immunoblots of lysates (input) and myc immunoprecipitate (IP) from HEK-293 cells overexpressing FLAG-KEAP1, myc-NRF2, and HA-ubiquitin. Data are either representative of or quantified from n=3 independent experiments except in FIG. 21A, where n=1 in triplicate. In FIG. 21A, mean f SEM depicted. In FIG. 21B, median and range depicted. *=P<0.05 and ns=P>0.05 by one-way ANOVA followed by post-hoc Dunnett's test.

[4] = test system: constrictive mouse model of trigeminal neuralgia; experiment: Cold allodynia (ice-cold acetone) after constriction of the maxillary nerve; type: in vivo; conditions: i.p. daily, sulforaphane 10 mg/kg; for cold allodynia (analgesic effect): NRF2−/− mice, exemestane 10 mg/kg, JQ-1 40 mg/kg
[5] = target: T1, TRPA1 (Homo sapiens, UniProt O75762); experiment: Calcium imaging of HEK293 cells transiently expressing WT TRPA1; type: cell-based; conditions: for inhibition of TRPA1 channel activity: applied after 4-HNE, 1 μM exemestane, 100 μM JQ-1, 10 μM sulforaphane; for activation of TRPA1: exemestane 1-100 μm, JQ-1 as high as 100 μM, 10 μM sulforaphane
T1 construct: expressed in transfected cells; host or cells: HEK293
T1 sequence (O75762 whole entry): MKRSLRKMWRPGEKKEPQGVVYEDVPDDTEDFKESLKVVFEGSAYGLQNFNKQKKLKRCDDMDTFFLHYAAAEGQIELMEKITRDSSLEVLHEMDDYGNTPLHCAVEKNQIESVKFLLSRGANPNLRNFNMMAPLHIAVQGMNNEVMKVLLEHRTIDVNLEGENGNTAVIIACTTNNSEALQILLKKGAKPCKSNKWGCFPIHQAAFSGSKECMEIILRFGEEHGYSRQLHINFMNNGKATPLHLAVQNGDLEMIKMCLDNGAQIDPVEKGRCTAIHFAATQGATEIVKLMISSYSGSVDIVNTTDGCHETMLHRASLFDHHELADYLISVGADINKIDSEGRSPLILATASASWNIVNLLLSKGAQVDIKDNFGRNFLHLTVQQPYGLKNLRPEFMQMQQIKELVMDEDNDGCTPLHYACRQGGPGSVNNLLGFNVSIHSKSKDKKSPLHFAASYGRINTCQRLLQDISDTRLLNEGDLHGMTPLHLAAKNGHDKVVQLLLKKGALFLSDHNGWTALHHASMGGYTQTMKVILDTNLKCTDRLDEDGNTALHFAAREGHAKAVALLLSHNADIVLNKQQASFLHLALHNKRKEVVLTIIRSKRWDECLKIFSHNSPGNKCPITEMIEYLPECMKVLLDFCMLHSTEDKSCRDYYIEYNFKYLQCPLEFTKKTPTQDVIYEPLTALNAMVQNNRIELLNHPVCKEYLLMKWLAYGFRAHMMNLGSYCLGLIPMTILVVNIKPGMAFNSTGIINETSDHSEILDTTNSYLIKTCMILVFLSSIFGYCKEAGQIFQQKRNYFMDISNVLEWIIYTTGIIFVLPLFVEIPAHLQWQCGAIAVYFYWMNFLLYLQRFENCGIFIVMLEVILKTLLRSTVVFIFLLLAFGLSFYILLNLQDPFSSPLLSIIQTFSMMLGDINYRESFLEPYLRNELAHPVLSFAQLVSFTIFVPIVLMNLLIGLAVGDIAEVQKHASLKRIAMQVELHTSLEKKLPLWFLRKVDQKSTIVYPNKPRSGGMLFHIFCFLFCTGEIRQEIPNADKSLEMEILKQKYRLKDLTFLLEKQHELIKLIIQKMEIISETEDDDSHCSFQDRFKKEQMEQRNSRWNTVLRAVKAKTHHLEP
Procedure: Calcium Imaging and Analysis Calcium imaging and analysis was performed as previously described (See Meixiong, J. et al. Elife 8, (2019)). Briefly, cells were imaged in calcium imaging buffer (CIB; 10 mM HEPES, 1.2 mM NaHCO3, 130 mM NaCl, 3 mM KCl, 2.5 mM CaCl2, 0.6 mM MgCl2, 20 mM glucose, and 20 mM sucrose at pH 7.4 and 290-300 mOsm). To monitor changes in intracellular [Ca^2+]([Ca^2+]i), cells were loaded with either 1 μM Fura 2-AM (HEK293 cells) or 1 μM Fluo 4-AM (trigeminal neurons) for 30 min in the dark at 37° C. in CIB just prior to imaging. With Fura 2-AM, emission at 510 nm was monitored following excitation at both 340 nm and 380 nm. With Fluo 4-AM, emission at 520 nm was monitored following excitation at 488 nm. Cells were identified as positively responding if [Ca^2+]i rose by 15% compared to baseline. Damaged, detached, high-baseline, and motion-activated cells were excluded from analysis.
HEK293 cells were plated on poly-D-lysine-coated coverslips and transiently transfected with the vector backbone or constructs encoding WT or mutant TRPA1. Unless otherwise noted, cells were imaged for 30 s to establish a baseline before compounds were added. Vehicle was first applied for 30 s, after which 100 μM iodoacetamide, 1 mM H2O2, or 100 μM 4-HNE was applied. CSF from cases and controls was diluted into calcium imaging buffer 1:50 prior to each trial. 50 μM of the non-selective TRP channel inhibitor ruthenium red was applied at the end of every imaging trial.

C[S+]([O-])CCCCN=C=S (stereo not shown) [sulforaphane, 1-isothiocyanato-4-(methanesulfinyl)butane]
malondialdehyde in maxillary nerves after nerve ligation ([1]; sulforaphane 10 mg/kg, i.p., normalized to protein): reduced | levels of 4-HNE in maxillary nerves after nerve ligation [1]: reduced | protein carbonylation in maxillary nerves after nerve ligation [1]: reduced | NRF2 expression in neurons of the trigeminal ganglion [2]: robustly increased NRF2 expression | stabilization of NRF2 [3]: both sulforaphane and exemestane do | nuclear translocation of NRF2 [3]: promote nuclear translocation of NRF2 | inhibition of NRF2 ubiquitination [3]: both sulforaphane and exemestane do | cold allodynia (analgesic effect) [4]: lose their analgesic effects | cold allodynia ([4]; TRPA1−/− mice, compared with genetic deletion of TRPA1 alone): did not lower | inhibition of TRPA1 channel activity [5]: Neither sulforaphane, exemestane, nor JQ-1 inhibited TRPA1 channel activity | activation of TRPA1 [5]: Neither sulforaphane nor JQ-1 activate TRPA1

C=C1C[C@@H]2[C@H](CC[C@]3(C)C(=O)CC[C@@H]23)[C@@]2(C)C=CC(=O)C=C12 [exemestane, 6-methylenandrosta-1,4-diene-3,17-dione]
levels of 4-HNE in maxillary nerves after nerve ligation [1]: reduced | protein carbonylation in maxillary nerves after nerve ligation [1]: reduced | NRF2 expression in neurons of the trigeminal ganglion [2]: robustly increased NRF2 expression | stabilization of NRF2 [3]: both sulforaphane and exemestane do | nuclear translocation of NRF2 [3]: promote nuclear translocation of NRF2 | inhibition of NRF2 ubiquitination [3]: both sulforaphane and exemestane do | cold allodynia (analgesic effect) [4]: lose their analgesic effects | inhibition of TRPA1 channel activity [5]: Neither sulforaphane, exemestane, nor JQ-1 inhibited TRPA1 channel activity | activation of TRPA1 [5]: did not activate TRPA1

Cc1sc2c(c1C)C(c1ccc(Cl)cc1)=N[C@@H](CC(=O)OC(C)(C)C)c1nnc(C)n1-2 [JQ-1, (S)-tert-butyl 2-(4-(4-chlorophenyl)-2,3,9-trimethyl-6H-thieno[3,2-f][1,2,4]triazolo[4,3-a][1,4]diazepin-6-yl)acetate]
levels of 4-HNE in maxillary nerves after nerve ligation [1]: reduced | protein carbonylation in maxillary nerves after nerve ligation [1]: reduced | stabilization of NRF2 [3]: neither stabilizes NRF2 | nuclear translocation of NRF2 [3]: does not | inhibition of NRF2 ubiquitination [3]: nor inhibits its ubiquitination | cold allodynia (analgesic effect) [4]: lowers | inhibition of TRPA1 channel activity [5]: Neither sulforaphane, exemestane, nor JQ-1 inhibited TRPA1 channel activity | activation of TRPA1 [5]: do not activate TRPA1
